One assay has as its target Neprilysin (Homo sapiens, UniProt P08473). Nature of the assay: Inhibition of NEP.
The nature of assay [1]: Inhibition of ECE.
Assay [2] concerns the target Angiotensin-converting enzyme (Homo sapiens, UniProt P12821). Nature of the assay: Inhibition of ACE.

The values below come from ChEMBL document CHEMBL1143110, “Targeting ACE and ECE with dual acting inhibitors” (Bioorg Med Chem Lett, 2008).

Each structure is given as a SMILES string.

As for `CC(C)CN(C[C@H](O)C(=O)O)C(=O)N[C@@H](Cc1c[nH]c2ccccc12)C(=O)O`, the IC50 (commonly the midpoint of a concentration-inhibition curve) on Neprilysin turned out to be 8 nM; in assay [1] it was 16500 nM; in assay [2] it was 103 nM.
`O=C(O)[C@H](Cc1ccc2ccccc2c1)NC(=O)N(Cc1ccc2c(c1)Cc1ccccc1-2)C[C@H](O)C(=O)O`: the IC50 against Neprilysin stood at 19000 nM; in assay [2] it was 150 nM.
Molecule `CC(C)CN(CCP(=O)(O)O)C(=O)N[C@@H](Cc1ccc2ccccc2c1)C(=O)O` came in with an IC50 against Neprilysin of 6 nM.
At Neprilysin, `CCC(CC)CN(C[C@H](O)C(=O)O)C(=O)N[C@@H](Cc1ccc2ccccc2c1)C(=O)O` returned a half-maximal inhibitory concentration (IC50) of 36 nM.
For `O=C1c2ccccc2-c2ccc(CN(C[C@H](O)C(=O)O)C(=O)N[C@@H](Cc3ccc4ccccc4c3)C(=O)O)cc21`, half-maximal inhibition in assay [2] (IC50) was put at 39 nM.
With `CC(C)CN(C[C@H](O)C(=O)O)C(=O)N[C@@H](Cc1ccc(O)c(O)c1)C(=O)O`, the IC50 came out at 19 nM on Neprilysin and 23 nM in assay [2].
As for `CC(C)CN(C[C@H](O)C(=O)O)C(=O)N[C@@H](Cc1ccc(O)cc1)C(=O)O`, the figures for the IC50 (on Neprilysin; in assay [2]) were 6 nM and 60 nM, respectively.
As for `O=C(O)[C@H](Cc1ccc2ccccc2c1)NC(=O)N(CCN1C(=O)c2cccc3cccc(c23)C1=O)C[C@H](O)C(=O)O`, the half-maximal inhibitory concentration (IC50) on Neprilysin is 650 nM; in assay [1], 600 nM; in assay [2], 1980 nM.
In the case of `O=C1c2ccccc2C(=O)c2cc(CN(C[C@H](O)C(=O)O)C(=O)N[C@@H](Cc3ccc4ccccc4c3)C(=O)O)ccc21`, the IC50 in assay [2] amounted to 40 nM. This lies in the double-digit nanomolar range.
On to `CC(C)(C)CN(C[C@H](O)C(=O)O)C(=O)N[C@@H](Cc1ccc2ccccc2c1)C(=O)O`, for which the 50% inhibitory concentration (IC50) at Neprilysin was determined as 5 nM; in assay [2], 191 nM.
In the case of `CC(C)CN(C[C@H](O)C(=O)O)C(=O)N[C@@H](Cc1ccc(-c2ccccc2)cc1)C(=O)O`, the results for the IC50 (against Neprilysin; in assay [1]; in assay [2]) were 10 nM, 3490 nM and 35 nM, respectively.
As for `CC(C)CN(C[C@H](O)C(=O)O)C(=O)N[C@@H](Cc1cccc2ccccc12)C(=O)O`, the half-maximal inhibitory concentration (IC50) against Neprilysin was 9 nM; in assay [2], 110 nM.
For `CC(C)CN(CP(=O)(O)O)C(=O)N[C@@H](Cc1ccc2ccccc2c1)C(=O)O`, the 50% inhibitory concentration (IC50) at Neprilysin came out at 2 nM; in assay [2] it was 29 nM.
In the case of `CC(C)CN(C[C@H](O)C(=O)O)C(=O)N[C@@H](Cc1ccc2ccccc2c1)C(=O)O`, the IC50 on Neprilysin stood at 4 nM; in assay [1] it was 2500 nM; in assay [2], 52 nM.
